Data on two compounds can be found in patent publication US5223415A, “Biosynthetic production of 7-[1',2',6',7',8',8a'(R)-hexahydro-2'(S),6'(R)-dimethyl-8'(S)-hydroxy-1' (S)-naphthyl]-3(R),5(R)-dihydroxyheptanoic acid (triol acid)” (Merck & Co., Inc., priority 1992, dated 1993).

In data set [1] the test system is crude hydrolase (6000 rpm supernatant) of Clonostachys compactiuscula ATCC 38009. Particulars: lovastatin 1.4 mM and simvastatin 18.6 mM ammonium salts solution, 50 mM Tris pH 7.8, methanol, 29 C., after 17 h.
Method: The resulting homogenized, frozen powder was transferred to a suitable tube and the material remaining in the mortar washed into the same tube using a minimal volume of 50 mM Tris, pH 7.8. The mixture was then allowed to thaw and then centrifuged at 6000 rpm for 10 minutes to remove large cell debris and glass.
The 6000 rpm supernatant was used as a crude source of hydrolase and 0.8 mL was mixed with 0.2 mL methanol and 1.0 mL of a solution of simvastatin (18.6 mM and lovastatin (1.4 mM) ammonium salts in 50 MM Tris, pH 7.8.) The reaction mixture was incubated at 29 C. and sampled after 1 h, 2 h, and 17 h by removing 0.1 mL and diluting with 0.9 mL methanol. The samples were then subjected to analysis by HPLC using a Whatman C-8 column as stationary phase and a 60:40 mixture of acetonitrile: 0.5% phosphoric acid as mobile phase; under these conditions the respective retention times for simvastatin, lovastatin and triol ammonium salts are 4.4 min., 3.8 min., and 2.5 min.
For data set [2], the system named is purified lovastatin acid hydrolase from Clonostachys compactiuscula. Kind of data set: Km and specific activity of purified hydrolase with lovastatin ammonium salt as substrate. The data set is classed as biochemical. Conditions: for specific activity: saturating substrate conditions. As for the experimental part:
A hydrolytic enzyme which carries out the biotransformation of lovastatin acid to triol acid was purified by Fast Protein Liquid Chromatography (FPLC*) employing a MONO Q® anion exchange column to near homogeneity from homogenates of Clonostachys compactiuscula employing the procedures described below.
The supernatant from the 6,000 rpm centrifugation as in Example 2 above, but where 50 mM of tris(hydroxymethyl)aminomethane (TRIS) buffer (pH 7.8) is substituted for 50 mM TES buffer, was centrifuged at 15,000 rpm for 20 minutes and the resulting supernatant filtered through a […] filter. Batches (10 mL) of filtrate containing 0.3-0.5 mg/mL protein were then applied at a rate of 1.0-2.0 mL/minute to a Pharmacia MONO Q® (HR 5/5) anion exchange column connected to a Pharmacia Fast Protein Liquid Chromatography (FPLC) system.
After allowing binding of the anionic proteins to the column matrix, the hydrolase was specifically eluted by the application of a linear gradient of sodium chloride (0-500 mM) in 20 mM TRIS, pH 7.8. […] When the latter substrate was used, the hydrolytic reaction was monitored spectrophotometrically at 410 nm essentially as described by Lawrence, R. C. et al. in J. Gen. Microbiol. (1967) 48, 401-418.
Using the purified enzyme preparation, the biotransformation was carried out in accordance with the procedures described above in Examples 1, 2, 4 and 6, and an estimate was made of the hydrolase's Km and specific activity with lovastatin ammonium salt as substrate. […]
After allowing binding of the anionic proteins to the column matrix, the hydrolase was specifically eluted by the application of a linear gradient of sodium chloride (0-500 mM). […] When the latter substrate was used, the hydrolytic reaction was monitored spectrophotometrically at 410 nm essentially as described by Lawrence, R. C. et al. in J. Gen. […]

For data set [3], the system named is crude homogenate of Clonostachys compactiuscula. The data set is classed as biochemical. Conditions: equal volumes of crude homogenate (about 0.5 mg/ml protein) and lovastatin acid ammonium salt 5 g/L, 29° C., within 2 hrs. How it is done: Clonostachys compactiuscula ATCC 38009 was grown in 250 ml shake flasks containing 12 ml of medium EN at 29° C. for 3 days. Lovastatin ammonium salt was added to give a concentration of 2.5 g/L and fermentation was continued for 2 additional days. To prepare the crude homogenate, the culture was harvested by centrifugation at 3000 rpm for 10 minutes, after which it was washed with 50 mM of N-tris(hydroxymethyl)methyl-2-aminoethanesulfonic acid (TES) buffer, pH 7.7. The culture medium was again centrifuged and the cell mass was chilled on ice and then subjected to grinding in a mortar and pestle containing glass fragments and powdered dry ice. The contents of 1 shake flask was resuspended in 2.0 ml of 50 mM TES buffer and centrifuged at 6000 rpm for 10 minutes to remove cell debris and glass fragments. The supernatant was used as the source of crude homogenate with protein concentration of approximately 0.5 mg/ml.
In order to carry out the biotransformation, one volume of crude homogenate was combined with an equal volume of lovastatin acid ammonium salt (5 g/L), and the mixture was incubated at 29° C. Using this method, 80-90% conversion of lovastatin acid to triol acid was observed within 2 hrs.

Data set [4] deals with purified Clonostachys compactiuscula esterase. It is filed as biochemical. Particulars: within 16 h; enzyme 4.0 or 40.0 microgram/ml, simvastatin 10 or 35 mM, pH 7.8 or 9.5, methanol 0-20% v/v (conditions listed in table 1). As for the experimental part:
Clonostachys compactiuscula esterase was purified from 57 g mycelial cells which had been grown up in medium EN using the methods detailed in Examples 1 and 3. The use of a Pharmacia HR 10/10 MONO Q® column allowed the application of 85 mL of crude cell-free extract per purification run. In total 0.89 mg of purified esterase was obtained (in a volume of 10 mL) which was then concentrated to 0.175 mg protein/mL by ultrafiltration using a 10,000 molecular weight cut-off CENTRIPREP® device (AMICON®).
Other conditions which were varied were pH (7.8 and 9.5 were assessed) and methanol concentration (0, 10 and 20% [v/v, final concentration]). The reactions were buffered by the inclusion of either 100 mM TRIS (in the case of reactions carried out at pH 7.8) or 100 mM glycine […]. Greater than 90% hydrolysis of residual lovastatin acid to triol acid was obtained within 16 h under the following conditions: […]

Counter-ions that a name gives are not always drawn.

On to `CC[C@H](C)C(=O)O[C@H]1C[C@@H](C)C=C2C=C[C@H](C)[C@H](CC[C@@H](O)C[C@@H](O)CC(=O)O)[C@H]21` [lovastatin ammonium salt], for which the “conversion of lovastatin (HPLC area percent reduction)” value in data set [1] was “greater than 99%”. Moreover, the Michaelis constant (Km) in data set [2] (lovastatin ammonium salt as substrate, purified enzyme preparation) is 4.14 mM. Also, the specific activity in data set [2] (Example 3) was 0.04 mmol lovastatin ammonium salt hydrolyzed/mg protein per minute; in data set [2] (Example 4), 0.11 mmol lovastatin ammonium salt/mg protein per hour.
For `CC[C@H](C)C(=O)O[C@H]1C[C@@H](C)C=C2C=C[C@H](C)[C@H](CC[C@@H](O)C[C@@H](O)CC(=O)O)[C@H]21` [lovastatin acid], the “conversion of lovastatin acid to triol acid” value in data set [3] is reported as 80-90%. Besides, in data set [4], the “hydrolysis of residual lovastatin acid to triol acid” value was “Greater than 90%”.
